# According to US9738637B2, “Histone demethylase inhibitors” (Quanticel Pharmaceuticals, Inc., priority 2013, dated 2017):
# How the values were obtained:
# Assay type in all cases: biochemical
# JMJD2C = JMJD2C (Homo sapiens (Human), UniProt Q9H3R0); test: JMJD2C in vitro enzyme inhibition assay (TR-FRET); details: TR-FRET, H3K9me3-biotin peptide; read-out: IC50 JNJD2C
# Protocol: (§1) This assay determines the ability of a test compound to inhibit Jarid1A, Jarid1B, JMJD2C, and JMJD2A demethylase activity.
# Reaction product was determined quantitatively by TR-FRET after the addition of detection reagent Phycolink Streptavidin-allophycocyanin (Prozyme) and Europium-anti-di-methylated histone H3 lysine 9 (H3K9me2) antibody (PerkinElmer) in the presence of 5 mM EDTA in LANCE detection buffer (PerkinElmer) at a final concentration of 50 nM and 1 nM, respectively.
# The assay reaction was initiated by the following: 2 μl of the mixture of 900 nM H3K9me3-biotin labeled peptide and 6 μM alpha-ketoglutaric acid with 2 μl of 11-point serial diluted inhibitor in 3% DMSO were added to each well of the plate, followed by the addition of 2 μl of 0.9 nM JMJD2C to initiate the reaction. The reaction mixture was incubated at room temperature for 30 minutes, and terminated by the addition of 6 μl of 5 mM EDTA in LANCE detection buffer containing 100 nM Phycolink Streptavidin-allophycocyanin and 2 nM Europium-anti-H3K9me2 antibody.
# (§2) The ability of the compounds disclosed herein to inhibit demethylase activity was quantified and the respective IC50 value was determined.
# Jarid1A = Jarid1A (Homo sapiens (Human), UniProt P29375); test: Jarid1A in vitro enzyme inhibition assay (TR-FRET); details: H3K4me3-biotin peptide
# Protocol: as §1
# The enzymatic assay of Jarid1A activity is based upon Time Resolved-Fluorescence Resonance Energy Transfer (TR-FRET) detection.
# The assay reaction was initiated by the following: 2 μl of the mixture of 900 nM H3K4me3-biotin labeled peptide and 6 μM alpha-ketoglutaric acid with 2 μl of 11-point serial diluted inhibitor in 3% DMSO was added to each well of plate, followed by the addition of 2 μl of 3 nM Jarid1A to initiate the reaction. The reaction mixture was incubated at room temperature for 30 minutes, and terminated by the addition of 6 μl of 5 mM EDTA in LANCE detection buffer containing 50 nM Phycolink Streptavidin-allophycocyanin and 2 nM Europium-anti-H3K4me1-2 antibody.
# as §2
# Jarid1B = Jarid1B (Homo sapiens (Human), UniProt Q9UGL1); test: Jarid1B in vitro enzyme inhibition assay (TR-FRET); details: TR-FRET, H3K4me3-biotin peptide; read-out: IC50 Jarid1B
# Protocol: as §1
# The reaction mixture was incubated at room temperature for 30 minutes, and terminated by the addition of 6 μl of 5 mM EDTA in LANCE detection buffer containing 50 nM Phycolink Streptavidin-allophycocyanin and 2 nM Europium-anti-H3K4me1-2 antibody.
# as §2
# Sequence of Jarid1A (P29375 1-1090): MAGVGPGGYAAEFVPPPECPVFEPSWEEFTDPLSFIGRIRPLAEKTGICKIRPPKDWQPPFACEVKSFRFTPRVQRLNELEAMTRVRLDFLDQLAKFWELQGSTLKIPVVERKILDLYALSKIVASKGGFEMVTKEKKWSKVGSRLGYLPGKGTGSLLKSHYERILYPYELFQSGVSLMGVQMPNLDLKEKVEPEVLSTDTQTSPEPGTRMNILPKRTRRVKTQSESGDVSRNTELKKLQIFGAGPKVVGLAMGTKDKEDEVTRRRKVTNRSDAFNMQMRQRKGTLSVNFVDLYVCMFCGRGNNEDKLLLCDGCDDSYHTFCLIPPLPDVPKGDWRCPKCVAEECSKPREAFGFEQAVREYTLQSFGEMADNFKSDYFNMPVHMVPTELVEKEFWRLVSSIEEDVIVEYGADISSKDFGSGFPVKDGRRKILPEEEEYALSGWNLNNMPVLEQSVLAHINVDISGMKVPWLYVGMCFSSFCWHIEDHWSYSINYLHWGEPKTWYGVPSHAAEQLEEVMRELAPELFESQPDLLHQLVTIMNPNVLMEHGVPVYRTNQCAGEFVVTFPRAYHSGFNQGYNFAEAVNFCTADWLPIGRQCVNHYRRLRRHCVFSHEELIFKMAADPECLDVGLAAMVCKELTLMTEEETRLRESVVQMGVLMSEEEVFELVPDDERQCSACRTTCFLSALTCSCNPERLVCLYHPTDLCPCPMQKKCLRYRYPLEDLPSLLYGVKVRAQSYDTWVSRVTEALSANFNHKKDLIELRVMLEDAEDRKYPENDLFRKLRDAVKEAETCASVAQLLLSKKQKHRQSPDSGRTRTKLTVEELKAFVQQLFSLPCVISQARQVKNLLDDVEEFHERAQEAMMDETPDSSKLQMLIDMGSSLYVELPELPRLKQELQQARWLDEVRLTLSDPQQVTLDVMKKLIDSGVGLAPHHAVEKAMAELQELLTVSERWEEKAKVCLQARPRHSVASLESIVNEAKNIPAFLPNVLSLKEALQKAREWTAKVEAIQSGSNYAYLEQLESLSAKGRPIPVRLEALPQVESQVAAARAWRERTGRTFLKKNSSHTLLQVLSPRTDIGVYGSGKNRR
# Sequence of Jarid1B (Q9UGL1 2-751): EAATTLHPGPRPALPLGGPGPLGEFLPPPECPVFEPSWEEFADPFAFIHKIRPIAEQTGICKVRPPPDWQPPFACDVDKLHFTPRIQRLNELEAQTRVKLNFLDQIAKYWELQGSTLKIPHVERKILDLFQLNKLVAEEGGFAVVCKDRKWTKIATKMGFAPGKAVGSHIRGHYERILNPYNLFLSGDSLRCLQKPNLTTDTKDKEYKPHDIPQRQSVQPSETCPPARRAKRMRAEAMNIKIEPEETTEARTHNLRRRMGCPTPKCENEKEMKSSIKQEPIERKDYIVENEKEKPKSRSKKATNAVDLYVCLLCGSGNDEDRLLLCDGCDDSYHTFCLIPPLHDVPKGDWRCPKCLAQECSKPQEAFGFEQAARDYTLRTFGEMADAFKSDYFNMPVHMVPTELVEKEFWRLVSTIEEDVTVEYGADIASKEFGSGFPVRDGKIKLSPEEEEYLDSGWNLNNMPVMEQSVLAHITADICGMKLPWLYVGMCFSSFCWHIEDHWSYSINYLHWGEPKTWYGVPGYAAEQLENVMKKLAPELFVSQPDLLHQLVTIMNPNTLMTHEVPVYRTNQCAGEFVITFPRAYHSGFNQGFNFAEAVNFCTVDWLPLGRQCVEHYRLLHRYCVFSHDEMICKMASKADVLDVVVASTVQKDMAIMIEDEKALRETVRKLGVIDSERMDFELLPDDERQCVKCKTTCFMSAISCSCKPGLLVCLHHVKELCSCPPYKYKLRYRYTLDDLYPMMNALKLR
# Sequence of JMJD2C (Q9H3R0 2-372): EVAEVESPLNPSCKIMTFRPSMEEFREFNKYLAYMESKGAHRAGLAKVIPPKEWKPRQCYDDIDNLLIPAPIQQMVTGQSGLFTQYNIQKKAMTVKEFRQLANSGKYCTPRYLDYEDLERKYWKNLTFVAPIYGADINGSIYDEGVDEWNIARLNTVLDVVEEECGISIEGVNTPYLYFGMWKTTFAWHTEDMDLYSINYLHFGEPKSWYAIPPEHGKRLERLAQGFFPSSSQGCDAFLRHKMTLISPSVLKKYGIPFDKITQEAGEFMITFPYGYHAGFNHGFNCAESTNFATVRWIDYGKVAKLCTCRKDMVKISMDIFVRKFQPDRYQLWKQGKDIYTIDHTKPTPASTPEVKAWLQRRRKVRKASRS
Compound,IC50 (JMJD2C),IC50 (Jarid1A),IC50 (Jarid1B)
"N#CCCc1cc2nccc(C(=O)O)c2[nH]1 [Example 58, 2-(2-cyanoethyl)-1H-pyrrolo[3,2-b]pyridine-7-carboxylic acid]",< 100 nM,100 to 1000 nM,100 to 1000 nM
"COc1ccc(Cc2cc3nccc(C(=O)O)c3[nH]2)cc1 [Example 59, 2-[(4-methoxyphenyl)methyl]-1H-pyrrolo[3,2-b]pyridine-7-carboxylic acid]",< 100 nM,100 to 1000 nM,100 to 1000 nM
"Cc1ccc(OCc2cc3nccc(C(=O)O)c3[nH]2)cc1 [Example 62, 2-[(4-methylphenoxy)methyl]-1H-pyrrolo[3,2-b]pyridine-7-carboxylic acid]",100 to 1000 nM,100 to 1000 nM,100 to 1000 nM
"O=C(O)c1ccnc2cc(COc3ccc(C(F)(F)F)cc3)[nH]c12 [Example 68, 2-[[4-(trifluoromethyl)phenoxy]methyl]-1H-pyrrolo[3,2-b]pyridine-7-carboxylic acid]",100 to 1000 nM,< 100 nM,< 100 nM
"O=C(O)c1ccnc2cc(CCc3ccccc3)[nH]c12 [Example 70, 2-(2-phenylethyl)-1H-pyrrolo[3,2-b]pyridine-7-carboxylic acid]",< 100 nM,100 to 1000 nM,100 to 1000 nM
"O=C(O)c1ccnc2cc(COc3ccc4c(c3)CCO4)[nH]c12 [Example 76, 2-(2,3dihydro-1-benzofuran-5-yloxymethyl)-1H-pyrrolo[3,2-b]pyridine-7-carboxylic acid]",100 to 1000 nM,< 100 nM,< 100 nM
"O=C(O)c1ccnc2cc(Cc3ccccc3Cl)[nH]c12 [Example 78, 2-[(2-chlorophenyl)methyl]-1H-pyrrolo[3,2-b]pyridine-7-carboxylic acid]",< 100 nM,< 100 nM,< 100 nM
"O=C(O)c1ccnc2cc(COc3cccc(F)c3)[nH]c12 [Example 79, 2-[(3-fluorophenoxy)methyl]-1H-pyrrolo[3,2-b]pyridine-7-carboxylic acid]",< 100 nM,< 100 nM,< 100 nM
"O=C(O)c1ccnc2cc(COc3cccc(Cl)c3)[nH]c12 [Example 80, 2-[(3-chlorophenoxy)methyl]-1H-pyrrolo[3,2-b]pyridine-7-carboxylic acid]",100 to 1000 nM,< 100 nM,< 100 nM
"O=C(O)c1ccnc2cc(COc3cc(F)cc(F)c3)[nH]c12 [Example 81, 2-[(3,5-difluorophenoxy)methyl]-1H-pyrrolo[3,2-b]pyridine-7-carboxylic acid]",< 100 nM,< 100 nM,< 100 nM
"Cc1cc(C)cc(OCc2cc3nccc(C(=O)O)c3[nH]2)c1 [Example 82, 2-[(3,5-dimethylphenoxy)methyl]-1H-pyrrolo[3,2-b]pyridine-7-carboxylic acid]",100 to 1000 nM,< 100 nM,< 100 nM
"O=C(O)c1ccnc2cc(COc3cc(Cl)cc(Cl)c3)[nH]c12 [Example 83, 2-[(3,5-dichlorophenoxy)methyl]-1H-pyrrolo[3,2-b]pyridine-7-carboxylic acid]",100 to 1000 nM,< 100 nM,< 100 nM
"O=C(O)c1ccnc2cc(Cc3ccc(Cl)cc3Cl)[nH]c12 [Example 90, 2-[(2,4-dichlorphenyl)methyl]-1H-pyrrolo[3,2-b]pyridine-7-carboxylic acid]",100 to 1000 nM,< 100 nM,< 100 nM
"O=C(O)c1ccnc2cc(-c3cc4ccccc4o3)[nH]c12 [Example 92, 2-(1-benzofuran-2-yl)-1H-pyrrolo[3,2-b]pyridine-7-carboxylic acid]",100 to 1000 nM,100 to 1000 nM,100 to 1000 nM
"COc1ccc(OCc2cc3nccc(C(=O)O)c3[nH]2)cc1 [Example 93, 2-[(4-methoxyphenoxy)methyl]-1H-pyrrolo[3,2-b]pyridine-7-carboxylic acid]",100 to 1000 nM,100 to 1000 nM,< 100 nM
"O=C(O)c1ccnc2cc(COc3ccccc3Cl)[nH]c12 [Example 94, 2-[(2-chlorophenoxy)methyl]-1H-pyrrolo[3,2-b]pyridine-7-carboxylic acid]",1000 to 10000 nM,100 to 1000 nM,100 to 1000 nM

Compound,IC50 (JMJD2C),IC50 (Jarid1A),IC50 (Jarid1B)
"O=C(O)c1ccnc2cc(COc3ccccc3F)[nH]c12 [Example 95, 2-[(2-fluorophenoxy)methyl]-1H-pyrrolo[3,2-b]pyridine-7-carboxylic acid]",100 to 1000 nM,100 to 1000 nM,100 to 1000 nM
"O=C(O)c1ccnc2cc(COc3ccc(F)cc3Cl)[nH]c12 [Example 96, 2-[(2-chloro-4-fluorophenoxy)methyl]-1H-pyrrolo[3,2-b]pyridine-7-carboxylic acid]",100 to 1000 nM,< 100 nM,< 100 nM
"CC(=O)Nc1ccc(OCc2cc3nccc(C(=O)O)c3[nH]2)cc1 [Example 97, 2-{[4-(acetylamino)phenoxy]methyl}-1H-pyrrolo[3,2-b]pyridine-7-carboxylic acid]",100 to 1000 nM,100 to 1000 nM,100 to 1000 nM
"N#Cc1ccc(OCc2cc3nccc(C(=O)O)c3[nH]2)cc1 [Example 98, 2-[(4-cyanophenoxy)methyl]-1H-pyrrolo[3,2-b]pyridine-7-carboxylic acid]",100 to 1000 nM,< 100 nM,100 to 1000 nM
"CC(O)(c1ccc(F)cc1)c1cc2nccc(C(=O)O)c2[nH]1 (stereo not drawn) [Example 103, 2-[1-(4-fluorophenyl)-1-hydroxyethyl]-1H-pyrrolo[3,2-b]pyridine-7-carboxylic acid]",< 100 nM,< 100 nM,< 100 nM
"O=C(O)c1ccnc2cc(C(=O)N3CCCc4ccccc43)[nH]c12 [Example 105, 2-(1,2,3,4-tetrahydroquinolylcarbonyl)-pyrrolo[3,2-b]pyridine-7-carboxylic acid]",1000 to 10000 nM,100 to 1000 nM,1000 to 10000 nM
"O=C(O)c1ccnc2cc(C(=O)N3CCc4ccccc43)[nH]c12 [Example 107, 2-(indolinylcarbonyl)pyrrolo[3,2-b]pyridine-7-carboxylic acid]",100 to 1000 nM,< 100 nM,< 100 nM
"O=C(O)c1ccnc2cc(C(=O)N3CCCCC3)[nH]c12 [Example 109, 2-(piperidylcarbonyl)pyrrolo[3,2-b]pyridine-7-carboxylic acid]",100 to 1000 nM,100 to 1000 nM,100 to 1000 nM
"CC(c1ccc(F)cc1)c1cc2nccc(C(=O)O)c2[nH]1 (stereo not drawn) [Example 110, 2-[1-(4-fluorophenyl)ethyl]-1H-pyrrolo[3,2-b]pyridine-7-carboxylic acid]",100 to 1000 nM,100 to 1000 nM,100 to 1000 nM
"O=C(O)c1ccnc2cc(Cc3ccc(F)c(Cl)c3)[nH]c12 [Example 112, 2-(3-chloro-4-fluorobenzyl)-1H-pyrrolo[3,2-6]pyridine-7-carboxylic acid]",< 100 nM,< 100 nM,< 100 nM
"O=C(O)c1ccnc2cc(Cc3ccc(Cl)c(F)c3)[nH]c12 [Example 114, 2-(4-chloro-3-fluorobenzyl)-1H-pyrrolo[3,2-b]pyridine-7-carboxylic acid]",< 100 nM,< 100 nM,< 100 nM
"O=C(O)c1ccnc2cc(C(=O)N3CCC(c4ccccc4)C3)[nH]c12 (stereo not drawn) [Example 116, 2-[(3-phenylpyrrolidinyl)carbonyl]-pyrrolo[3,2-b]pyridine-7-carboxylic acid]",100 to 1000 nM,< 100 nM,< 100 nM
"O=C(O)c1ccnc2cc(C(=O)N3CCCC(c4ccccc4)C3)[nH]c12 (stereo not drawn) [Example 120, 2-[(3-phenylpiperidyl)carbonyl]pyrrolo-[3,2-b]pyridine-7-carboxylic acid]",100 to 1000 nM,100 to 1000 nM,100 to 1000 nM
"O=C(O)c1ccnc2cc(C(=O)N3CCc4ccccc4C3)[nH]c12 [Example 122, 2-(2-1,2,3,4-tetrahydroisoquinolylcarbonyl)-pyrrolo[3,2-b]pyridine-7-carboxylic acid]",100 to 1000 nM,< 100 nM,< 100 nM
"CC1(C)CCCN1C(=O)c1cc2nccc(C(=O)O)c2[nH]1 [Example 124, 2-[(2,2-dimethylpyrrolidinyl)carbonyl]-pyrrolo[3,2-b]pyridine-7-carboxylic acid]",100 to 1000 nM,100 to 1000 nM,< 100 nM
"(±)-methyl 2-(1-hydroxy-2-methylpropyl)-1H-pyrrolo[3,2-b]pyridine-7-carboxylate [Example 30]",< 100 nM,100 to 1000 nM,< 100 nM
